Reference: patent US5399699A, “Indole iminooxy derivatives which inhibit leukotriene biosynthesis” (Abbott Laboratories, priority 1994, dated 1995)

Tests used:
leukotriene biosynthesis = test: Inhibition of leukotriene biosynthesis in vivo, rat peritoneal anaphylaxis model, oral administration; conditions: 1 h, by gavage one hour prior to antigen challenge
Protocol: Inhibition of the biosynthesis of leukotrienes in vivo after oral administration of compound was determined using a rat peritoneal anaphylaxis model in a similar manner as that described by Young and coworkers (Young, P. R.; Dyer, R. D.; Carter, G. W. Fed. Proc., Fed. Am. Sec. Exp. Biol. 1985, 44, 1185). In this model rats were injected intraperitoneally (ip) with rabbit antibody to bovine serum albumin (BSA) and three hours later injected ip with BSA to induce an antigen-antibody response. Rats were sacrificed 15 minutes after this challenge and the peritoneal fluids were collected and analyzed for leukotriene levels. Test compounds were administered by gavage one hour prior to the antigen challenge. Percent inhibition values were determined by comparing the treatment group to the mean of the control group.

[1] = tested on: LTB4 biosynthesis in human polymorphonuclear leukocytes (PMNL); test: Inhibition of calcium ionophore (A23187)-induced LTB4 biosynthesis in human PMNL; type: cell-based; conditions: 15 min preincubation at 37° C., A23187 8.3 μM, 10 min, LTB4 by HPLC
Protocol: Inhibition of leukotriene biosynthesis was evaluated in assays, involving calcium ionophore-induced LTB4 biosynthesis expressed by human polymorphonuclear leukocytes (PMNL) or human whole blood. Human PMNL were isolated from heparinized (20 USP units/mL) venous blood using Ficoll-Hypaque Mono-Poly Resolving Medium. Human PMNL suspensions (5×10^6 cells/250 μL) were preincubated with test compounds or vehicle for 15 min at 37° C. followed by calcium ionophore A23187 challenge (final concentration of 8.3 μM) and the reaction terminated after 10 min by adding two volumes of methanol containing prostaglandin B2 as an internal recovery standard. The methanol extracts were analyzed for LTB4 content by HPLC.

| IC50 [1] | Compound | ED50 (leukotriene biosynthesis) |
| --- | --- | --- |
| 10 nM | CC(C)(CON=CC(=O)O)Cc1c(SC(C)(C)C)c2cc(OCc3ccc4ccccc4n3)ccc2n1Cc1ccc(Cl)cc1 [Example 1] | 0.9 mg/kg |
| 10 nM | CC(=NOCC(C)(C)Cc1c(SC(C)(C)C)c2cc(OCc3ccc4ccccc4n3)ccc2n1Cc1ccc(Cl)cc1)C(=O)O [Example 2, 1-(4-chlorobenzyl)-3-(t-butylthio)-5-(2-quinolinemethoxy)indol-2-yl(2,2-dimethyl)prop-3-yl-iminooxy-2-propionic acid] |  |
| 8 nM | CC(=NOCC(C)(C)Cc1c(SC(C)(C)C)c2cc(OCc3cscn3)ccc2n1Cc1ccc(Cl)cc1)C(=O)O [Example 5, 1-(4-chlorobenzyl)-3-(t-butylthio)-5-(4-thiazolylmethoxy)indol-2-yl-(2,2-dimethyl)prop-3-yliminooxy-2-propionic acid] |  |
| 5 nM | CC(C)(CON=CC(=O)O)Cc1c(SC(C)(C)C)c2cc(OCc3ccc4ccccc4n3)ccc2n1Cc1ccc(F)cc1 [Example 6, 1-(4-fluorobenzyl)-3-(t-butylthio)-5-(2-quinolinylmethoxy)indol-2-yl-(2,2-dimethyl)prop-3-yliminooxyacetic acid] |  |
